# Laboratory results from patent US9296757B2, “Substituted benzothienopyrimidines” (BAYER PHARMA AKTIENGESELLSCHAFT, priority 2012, dated 2016).
# Molecular target: human full-length MKNK1 (Homo sapiens (Human), UniProt Q9BUB5, T344D)
# Assay: MKNK1 kinase high ATP assay (TR-FRET)
# Type: biochemical
# Settings: high ATP (2 mM final), 15 min preincubation with enzyme
# Experimental: MKNK1-inhibitory activity at high ATP of compounds of the present invention after their preincubation with MKNK1 was quantified employing the TR-FRET-based MKNK1 high ATP assay as described in the following paragraphs.
# A recombinant fusion protein of Glutathione-S-Transferase (GST, N-terminally) and human full-length MKNK1 (amino acids 1-424 and T344D of accession number BAA 19885.1), expressed in insect cells using baculovirus expression system and purified via glutathione sepharose affinity chromatography, was purchased from Carna Biosciences (product no 02-145) and used as enzyme. As substrate for the kinase reaction the biotinylated peptide biotin-Ahx-IKKRKLTRRKSLKG (C-terminus in amide form) was used, which can be purchased e.g. from the company Biosyntan (Berlin-Buch, Germany).
# For the assay 50 nL of a 100 fold concentrated solution of the test compound in DMSO was pipetted into a black low volume 384 well microtiter plate (Greiner Bio-One, Frickenhausen, Germany), 2 μL of a solution of MKNK1 in aqueous assay buffer [50 mM HEPES pH 7.5, 5 mM MgCl2, 1.0 mM dithiothreitol, 0.005% (v/v) Nonidet-P40 (Sigma)] was added and the mixture was incubated for 15 min at 22° C. to allow pre-binding of the test compounds to the enzyme before the start of the kinase reaction. Then the kinase reaction was started by the addition of 3 μL of a solution of adenosine-tri-phosphate (ATP, 3.3 mM=>final conc. in the 5 μL assay volume is 2 mM) and substrate (0.1 μM=>final conc. in the 5 μL assay volume is 0.06 μM) in assay buffer and the resulting mixture was incubated for a reaction time of 30 min at 22° C. The concentration of MKNK1 was adjusted depending of the activity of the enzyme lot and was chosen appropriate to have the assay in the linear range, typical concentrations were in the range of 0.003 μg/mL. The reaction was stopped by the addition of 5 μL of a solution of TR-FRET detection reagents (5 nM streptavidine-XL665 [Cisbio Bioassays, Codolet, France] and 1 nM anti-ribosomal protein S6 (pSer236)-antibody from Invitrogen [#44921G] and 1 nM LANCE EU-W1024 labeled ProteinG [Perkin-Elmer, product no. AD0071]) in an aqueous EDTA-solution (100 mM EDTA, 0.1% (w/v) bovine serum albumin in 50 mM HEPES pH 7.5).
# The resulting mixture was incubated for 1 h at 22° C. to allow the formation of complex between the phosphorylated biotinylated peptide and the detection reagents. Subsequently the amount of phosphorylated substrate was evaluated by measurement of the resonance energy transfer from the Eu-chelate to the streptavidine-XL. Therefore, the fluorescence emissions at 620 nm and 665 nm after excitation at 350 nm were measured in a TR-FRET reader, e.g. a Rubystar (BMG Labtechnologies, Offenburg, Germany) or a Viewlux (Perkin-Elmer). The ratio of the emissions at 665 nm and at […] was taken as the measure for the amount of phosphorylated substrate. The data were normalised (enzyme reaction without inhibitor=0% inhibition, all other assay components but no enzyme=100% inhibition).
# Sequence of human full-length MKNK1 (Q9BUB5 other isoform, or with tags, fused parts or gaps T344D): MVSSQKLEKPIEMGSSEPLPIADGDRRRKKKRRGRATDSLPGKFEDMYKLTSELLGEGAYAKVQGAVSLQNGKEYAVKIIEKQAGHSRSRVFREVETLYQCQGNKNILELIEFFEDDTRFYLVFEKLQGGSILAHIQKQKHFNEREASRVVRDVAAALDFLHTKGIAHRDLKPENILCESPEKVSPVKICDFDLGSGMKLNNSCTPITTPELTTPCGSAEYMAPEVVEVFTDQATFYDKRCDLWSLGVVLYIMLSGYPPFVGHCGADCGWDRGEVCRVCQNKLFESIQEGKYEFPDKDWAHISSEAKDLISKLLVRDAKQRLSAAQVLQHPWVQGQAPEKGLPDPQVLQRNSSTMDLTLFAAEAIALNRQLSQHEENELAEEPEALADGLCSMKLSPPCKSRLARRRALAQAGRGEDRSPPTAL
row,Structure (SMILES),IC50 [nM]
1,"CC(C)(C)OC(=O)N[C@@H](CCO)C(=O)NCC1CCc2c(sc3ncnc(Nc4ccc5[nH]c(=O)sc5c4)c23)C1 (mixture of isomers) [Example 27, tert-Butyl {(2R)-4-hydroxy-1-oxo-1-[({(7RS)-4-[(2-oxo-2,3-dihydro-1,3-benzothiazol-6-yl)amino]-5,6,7,8-tetrahydro[1]benzothieno[2,3-d]pyrimidin-7-yl}methyl)amino]butan-2-yl}carbamate]",100
2,"N[C@@H](CCO)C(=O)NCC1CCc2c(sc3ncnc(Nc4ccc5[nH]c(=O)sc5c4)c23)C1 (mixture of isomers) [Example 32, N-({4-[(2-Oxo-2,3-dihydro-1,3-benzothiazol-6-yl)amino]-5,6,7,8-tetrahydro[1]benzothieno[2,3-d]pyrimidin-7-(RS)-yl}methyl)-L-homoserinamide]",92
3,"O=C(O)C1CCc2c(sc3ncnc(Nc4ccc5[nH]c(=O)sc5c4)c23)C1 (racemic) [Example 2, (RS)-4-[(2-Oxo-2,3-dihydro-1,3-benzothiazol-6-yl)amino]-5,6,7,8-tetrahydro[1]benzothieno[2,3-d]pyrimidine-7-carboxylic acid]",108
4,"O=C(NC1CC1)C1CCc2c(sc3ncnc(Nc4ccc5[nH]c(=O)sc5c4)c23)C1 (racemic) [Example 4, (RS)—N-Cyclopropyl-4-[(2-oxo-2,3-dihydro-1,3-benzothiazol-6-yl)amino]-5,6,7,8-tetrahydro[1]benzothieno[2,3-d]pyrimidine-7-carboxamide]",57
5,"CNC(=O)C1CCc2c(sc3ncnc(Nc4ccc5[nH]c(=O)sc5c4)c23)C1 (racemic) [Example 11, (RS)—N-Methyl-4-[(2-oxo-2,3-dihydro-1,3-benzothiazol-6-yl)amino]-5,6,7,8-tetrahydro[1]benzothieno[2,3-d]pyrimidine-7-carboxamide]",91
6,"O=C(NCC(F)(F)F)C1CCc2c(sc3ncnc(Nc4ccc5[nH]c(=O)sc5c4)c23)C1 (racemic) [Example 15, (RS)-4-[(2-oxo-2,3-dihydro-1,3-benzothiazol-6-yl)amino]-N-(2,2,2-trifluoroethyl)-5,6,7,8-tetrahydro[1]benzothieno[2,3-d]pyrimidine-7-carboxamide]",85
7,"COCC1(OC)CCc2c(sc3ncnc(Nc4ccc5[nH]c(=O)sc5c4)c23)C1 (racemic) [Example 16, (RS)-6-{[7-Methoxy-7-(methoxymethyl)-5,6,7,8-tetrahydro[1]benzothieno[2,3-d]pyrimidin-4-yl]amino}-1,3-benzothiazol-2(3H)-one]",304
8,"CC1CCc2c(sc3ncnc(Nc4ccc5[nH]c(=O)sc5c4)c23)C1 (racemic) [Example 17, (RS)-6-[(7-Methyl-5,6,7,8-tetrahydro[1]benzothieno[2,3-d]pyrimidin-4-yl)amino]-1,3-benzothiazol-2(3H)-one]",128
9,"O=c1[nH]c2ccc(Nc3ncnc4sc5c(c34)CCC(CO)C5)cc2s1 (racemic) [Example 18, (RS)-6-{[7-(Hydroxymethyl)-5,6,7,8-tetrahydro[1]benzothieno[2,3-d]pyrimidin-4-yl]amino}-1,3-benzothiazol-2(3H)-one]",60
10,"[N-]=[N+]=NCC1CCc2c(sc3ncnc(Nc4ccc5[nH]c(=O)sc5c4)c23)C1 (racemic) [Example 19, (RS)-6-{[7-(Azidomethyl)-5,6,7,8-tetrahydro[1]benzothieno[2,3-d]pyrimidin-4-yl]amino}-1,3-benzothiazol-2(3H)-one]",93
11,"NCC1CCc2c(sc3ncnc(Nc4ccc5[nH]c(=O)sc5c4)c23)C1 (racemic) [Example 20, (RS)-6-{[7-(Aminomethyl)-5,6,7,8-tetrahydro[1]benzothieno[2,3-d]pyrimidin-4-yl]amino}-1,3-benzothiazol-2(3H)-one]",103

# Stronger by IC50, values ahead:
row,IC50 [nM],Structure (SMILES)
1,48,"O=C(NCC1CC1)C1CCc2c(sc3ncnc(Nc4ccc5[nH]c(=O)sc5c4)c23)C1 (racemic) [Example 12, (RS)—N-(Cyclopropylmethyl)-4-[(2-oxo-2,3-dihydro-1,3-benzothiazol-6-yl)amino]-5,6,7,8-tetrahydro[1]benzothieno[2,3-d]pyrimidine-7-carboxamide]"
2,47,"CCOC(=O)C1CCc2c(sc3ncnc(Nc4ccc5[nH]c(=O)sc5c4)c23)C1 (racemic) [Example 1, (RS)-Ethyl 4-[(2-oxo-2,3-dihydro-1,3-benzothiazol-6-yl)amino]-5,6,7,8-tetrahydro[1]benzothieno[2,3-d]pyrimidine-7-carboxylate]"
3,43,"O=C(NCC1CCc2c(sc3ncnc(Nc4ccc5[nH]c(=O)sc5c4)c23)C1)[C@@H](O)Cc1ccccc1 (mixture of isomers) [Example 23, (2R)-2-Hydroxy-N-({(7RS)-4-[(2-oxo-2,3-dihydro-1,3-benzothiazol-6-yl)amino]-5,6,7,8-tetrahydro[1]benzothieno[2,3-d]pyrimidin-7-yl}methyl)-3-phenylpropanamide]"
4,42,"O=C(NCCC(F)(F)F)C1CCc2c(sc3ncnc(Nc4ccc5[nH]c(=O)sc5c4)c23)C1 (racemic) [Example 7, (RS)-4-[(2-Oxo-2,3-dihydro-1,3-benzothiazol-6-yl)amino]-N-(3,3,3-trifluoropropyl)-5,6,7,8-tetrahydro[1]benzothieno[2,3-d]pyrimidine-7-carboxamide]"
5,41,"CN(C)C(=O)C1CCc2c(sc3ncnc(Nc4ccc5[nH]c(=O)sc5c4)c23)C1 (racemic) [Example 13, (RS)—N,N-Dimethyl-4-[(2-oxo-2,3-dihydro-1,3-benzothiazol-6-yl)amino]-5,6,7,8-tetrahydro[1]benzothieno[2,3-d]pyrimidine-7-carboxamide]"
6,40,"CC(C)CNC(=O)C1CCc2c(sc3ncnc(Nc4ccc5[nH]c(=O)sc5c4)c23)C1 (racemic) [Example 6, (RS)—N-Isobutyl-4-[(2-oxo-2,3-dihydro-1,3-benzothiazol-6-yl)amino]-5,6,7,8-tetrahydro[1]benzothieno[2,3-d]pyrimidine-7-carboxamide]"
7,39,"CCNC(=O)C1CCc2c(sc3ncnc(Nc4ccc5[nH]c(=O)sc5c4)c23)C1 (racemic) [Example 3, (RS)—N-Ethyl-4-[(2-oxo-2,3-dihydro-1,3-benzothiazol-6-yl)amino]-5,6,7,8-tetrahydro[1]benzothieno[2,3-d]pyrimidine-7-carboxamide]"
8,36,"CC(C)NC(=O)C1CCc2c(sc3ncnc(Nc4ccc5[nH]c(=O)sc5c4)c23)C1 (racemic) [Example 5, (RS)—N-Isopropyl-4-[(2-oxo-2,3-dihydro-1,3-benzothiazol-6-yl)amino]-5,6,7,8-tetrahydro[1]benzothieno[2,3-d]pyrimidine-7-carboxamide]"
9,33,"O=C(Nc1ccccc1)C1CCc2c(sc3ncnc(Nc4ccc5[nH]c(=O)sc5c4)c23)C1 (racemic) [Example 8, (RS)-4-[(2-Oxo-2,3-dihydro-1,3-benzothiazol-6-yl)amino]-N-phenyl-5,6,7,8-tetrahydro[1]benzothieno[2,3-d]pyrimidine-7-carboxamide]"
10,25,"O=C(NCc1cccc(F)c1)C1CCc2c(sc3ncnc(Nc4ccc5[nH]c(=O)sc5c4)c23)C1 (racemic) [Example 14, (RS)—N-(3-Fluorobenzyl)-4-[(2-oxo-2,3-dihydro-1,3-benzothiazol-6-yl)amino]-5,6,7,8-tetrahydro[1]benzothieno[2,3-d]pyrimidine-7-carboxamide]"
11,11,"O=C(NCc1cccc(C(F)(F)F)c1)C1CCc2c(sc3ncnc(Nc4ccc5[nH]c(=O)sc5c4)c23)C1 (racemic) [Example 10, (RS)-4-[(2-Oxo-2,3-dihydro-1,3-benzothiazol-6-yl)amino]-N-[3-(trifluoromethyl)benzyl]-5,6,7,8-tetrahydro[1]benzothieno[2,3-d]pyrimidine-7-carboxamide]"
12,9,"O=C(NCc1ccccc1)C1CCc2c(sc3ncnc(Nc4ccc5[nH]c(=O)sc5c4)c23)C1 (racemic) [Example 9, (RS)—N-Benzyl-4-[(2-oxo-2,3-dihydro-1,3-benzothiazol-6-yl)amino]-5,6,7,8-tetrahydro[1]benzothieno[2,3-d]pyrimidine-7-carboxamide]"
